{"source": "patent US20160279190A1", "about": "“MODULATION OF AXON DEGENERATION” (GENENTECH, INC., priority 2008, published 2016)", "test_system": "DRGs", "assay": "anti-NGF antibody (NGF withdrawal) screen for inhibitors of neuron or axon degeneration", "format": "cell-based, mouse", "settings": "inhibitor 100 μM or 10 μM added 1 hour before 25 μg/ml anti-NGF antibodies; 20 hours; actin staining", "procedure": "The anti-NGF antibody model described above in Example 1 was used in a screen for inhibitors of neuron or axon degeneration. A library of more than 400 small molecules (Tocris Bioscience) was tested to see which, if any, modulate degeneration observed in the presence of anti-NGF antibodies.\nMouse E13.5 embryos were dissected and placed into L15 medium (Invitrogen). The spinal cord was dissected out from the embryos with DRGs attached. The spinal cords with DRGs attached were placed into L15 medium+5% goat serum (Gibco) on ice. The DRGs were removed using a tungsten needle and the remaining spinal cord was disposed of. Eight well slides were filled with N3-F12 solution (23 ml Ham's F12, 1 ml N3 supplement, and 1 ml 1 M glucose) to which was added 25 ng/ml NGF (Roche). (N3 supplement was made by dilution of N3 100× concentrate, which was made by mixing the following ingredients, in the following order: 5.0 ml Hank's buffered saline solution (HBSS; Ca, Mg free; Invitrogen), 1.0 ml bovine serum albumin (10 mg/ml in HBSS=150 μm), 2.0 ml Transferrin (T1147-1G, human, 100 mg/ml in HBSS=1.1 mM), 1.0 ml sodium selenite (S9133-1MG, 0.01 mg/ml in HBSS=58 μM), 0.4 ml putrescine dihydrochloride (P5780-5G, 80 mg/ml in HBSS=500 mM), 0.2 ml progesterone (P8783-5G, 0.125 mg/ml in absolute ethanol=400 μM), 0.02 ml corticosterone (C2505-500MG, 2 mg/ml in absolute ethanol=5.8 mM), 0.1 ml triiodothyonine, sodium salt (T6397-100MG, 0.2 mg/ml in 0.01 N NaOH=300 μM), 0.4 ml insulin (16634-250MG, bovine pancreas, 241 U/mg, 25 mg/ml in 20 mM HCl=4.4 mM), for a total volume of 10.02 ml (can be stored at −20° C.). An N3 supplement stock was made by combining the following: 10 ml Pen/Strep (100×, Gibco), 10 ml glutamine (200 mM, Gibco), 10 ml MEM vitamins (100×, Gibco), 10 ml N3 concentrate (100×, see above), for a total volume of 40 ml. The mixture was filter sterilized using a 0.22 μm filter, and 1-2 ml aliquots were stored at −20° C.).\nThe DRGs were sectioned into halves, and placed in the center of each well of an 8-chamber slide (BD Biocoat PDL/Laminin coated glass, Becton Dickinson). The DRGs were permitted to attach to the slide at room temperature for 5-10 minutes, followed by an overnight incubation at 37° C. Inhibitors of choice were added at a concentration of 100 μM (top row) or 10 μM (bottom row) 1 hour before adding anti-NGF antibodies. The anti-NGF antibodies were added to the right half of the slide (4 wells) at a concentration of 25 μg/ml. After incubation for 20 hours at 37° C., the slides were fixed with 30% sucrose/8% paraformaldehyde (PFA) by adding 250 μl of the fix solution directly to the 250 μl of culture medium. (To make the 30% sucrose/8% PFA solution, the following ingredients were added to a 600 ml beaker including a stir bar: 250 ml 16% PFA (cat#15710-S, Electron Microscopy Sciences), 50 ml 10×PBS pH 7.4, and 150 g sucrose. The solution was mixed under low heat until dissolved, and then 6-8 drops of 1 M NaOH were added to bring the pH to 7.4. The volume was then brought to 500 ml with water in a graduated cylinder. The solution was mixed well, placed in aliquots, and frozen.) The slides were fixed for 30 minutes, followed by washing once with PBS. All cells were labeled with an actin stain (Alexa-568 conjugated phalloidin; 1:40; Invitrogen), a membrane dye (DiO; 1:200; Invitrogen), and a DNA stain (Hoechst 33258; 1:10,000; Invitrogen) in 0.1% Triton and 1% goat serum for 2 hours at room temperature. […]", "data": [{"molecule": "O=C(O)c1ccc2c3c1cccc3c(=O)n1c3ccccc3nc21", "note": "[STO-609]", "values": [{"measurement": "Comments (observations on protection against neurodegeneration upon NGF withdrawal)", "result": "Partial"}]}]}
